Entries after “also recorded” stand apart in the source; their conditions may differ.
How the values were obtained:
THP-1 macrophages = test: Marker expression in MDA-MB-436 tumor cell-educated THP-1 macrophages; type: cell-based, human; settings: ADU-S100 10 μM, two days; FIG. 7G
Method: Cells were cultured in a humidified incubator under 5% CO2 at 37° C. MDA-MB-436, HCC1937 and THP-1 human cell lines were obtained from ATCC, tested negative for mycoplasma, and authenticated using short tandem repeat analysis (Promega GenePrint 10 System). MDA-MB-436 and HCC1937 breast cancer cells were cultured in RPMI 1640 medium (Gibco) supplemented with 10% heat-inactivated fetal bovine serum (FBS, Gemini) and 100 μg/mL penicillin-streptomycin (Gibco). THP-1 monocytes were cultured in RPMI 1640 with 10% FBS and 0.055 mM 2-mercaptoethanol (Gibco, #21985023). To differentiate THP-1 monocytes to macrophages, cells were treated with 100 nM PMA (Sigma, #P1585) for 48 h, followed by 24 h recovery with PMA-free medium.
For flow cytometry analyses of tumor and TDLN samples, single-cell suspensions were obtained as described above (Tissue Digestion). Cells were stained in cold FACS buffer (PBS containing 0.2% BSA and 5 mM EDTA) with LIVE/DEAD Fixable Aqua Dead Cell Stain (Thermo Fisher) for 30 min on ice, followed by blocking with anti-CD16/32 (BioLegend) for 20 min on ice. […] All data were analyzed using FlowJo software. […]

[1] = tested on: BMDMs generated from FVB/NJ mice; test: Polarization of mouse BMDMs cultured in PBM / PBM-R conditioned medium; type: cell-based; settings: BMDMs in 50% PBM-R-CM; ADU-S100 10 μM or MSA-2 5 ug/ml, two days; FIG. 21B
Method: For ex vivo culture of mouse macrophages, bone marrow cells were isolated from FVB/NJ mice and cultured in DMEM containing 10% FBS, 55 μM 2-Mercaptoethanol and 20 ng/ml M-CSF. BMDMs (bone marrow derived macrophages) were harvested on day 7 and further cultured in 2.0 ml control medium (90% DMEM, 10% FBS, 55 μM 2-Mercaptoethanol and 5 ng/ml M-CSF) described above or the medium containing 50% tumor cell conditioned medium for 72 hrs before analysis. For the tumor cell conditioned medium, about 3×10^5 tumor cells were cultured in 6-well plate for 24 hrs and then treated with DMSO or olaparib. After 24 hrs incubation with DMSO or olaparib, the tumor cells were washed twice with PBS and cultured in DMEM containing 10% FBS for 48 hrs. The tumor cell conditioned medium was collected by centrifugation at 1,500 g for 5 min at 4° C. to remove all the debris and cells. For the cytokine blocking experiment, monoclonal antibodies that specific to each cytokine were added to the tumor cell conditioned medium before it was applied to culture macrophages.

human BMDMs = test: Polarization of human BMDMs cultured in CM from ovarian PDXs; type: cell-based; settings: STAT3 inhibitor-treated PDXs; FIG. 25D
Method: For ex vivo culture of human macrophages, human BMDMs were generated from bone marrow mononuclear cells (BMMs) (CAT #70001) obtained from […] Technologies. Briefly, BMMs were cultured in DMEM containing 10% FBS, 55 μM 2-Mercaptoethanol (CAT #21985023, Thermo Fisher) and 50 ng/ml M-CSF for 5-7 days with media replacement every 3 days to obtain matured macrophages (BMDMs). […] Flow cytometry analysis was preformed to analyze the phenotypes of macrophages for both mouse and human BMDMs.

PE tumors [2] = test: PE (exon19del/T790M EGFR, Trp53 loss) tumor growth in FVB mice; type: in vivo, mouse; settings: mouse, in vivo
PE tumor cells = test: CXCL10 and CCL5 expression in PE tumor cells (RT-PCR); type: cell-based, mouse; settings: FIG. 27C
Method: (§1) Cultured cells were lysed in 1 mL TRIZOL® reagent supplied with 200 μL chloroform, after which, samples were vortexed vigorously for 15s and incubated at room temperature for 2 to 3 minutes. The samples were then centrifuged at 12000 g for 15 minutes at 4° C., and collected aqueous phase only. […] Relative mRNA levels were calculated using the […]. Mouse Actb and human GAPDH were used as endogenous controls for mouse and human samples, respectively.

PC9GR4 = test: CXCL10 and CCL5 expression in PC9GR4 cells (RT-PCR); type: cell-based, human; settings: FIG. 27C
Method: as §1

PE tumors [3] = test: Flow cytometry of immune cells in PE tumors and tumor-drainage lymph nodes; type: in vivo, mouse
Method: To obtain single-cell suspension from tumor mass, tumors were excised, minced and dissociated in collagenase buffer (DMEM supplemented with 5% FBS, 10 mM HEPES [Gibco), 100 μg/mL penicillin-streptomycin, 20 μg/mL DNase I [StemCell] and 1× collagenase/hyaluronidase [StemCell]) at 37° C. for 45 min. Tumor-draining lymph nodes were isolated from tumor-bearing mice and were mashed through 70 μm strainer using plunger of a syringe to obtain single-cell suspension.
For FACS staining, tissue cells were first stained with LIVE/DEAD Fixable Aqua Dead Cell Stain (Thermo Fisher) for 30 min on ice, followed by blocking with anti-CD16/32 (BioLegend) for 20 minutes on ice. Afterwards, cells were incubated with antibodies targeting surface biomarkers in FACS buffer for 30 minutes on ice.

[4] = tested on: EFGR/ERK signaling pathway

## Nc1ncnc2c1ncn2[C@@H]1O[C@@H]2COP(=O)([S-])O[C@@H]3[C@H](O)[C@@H](COP([O-])(=S)O[C@H]2[C@H]1O)O[C@H]3n1cnc2c(N)ncnc21.[Na+].[Na+] (some centres unmarked) [ADU-S100]
THP-1 macrophages
  CD86 expression: significantly increased
  CD163 expression: suppressed
[1]
  M1/M2 ratio: significantly increased

## CC(=O)c1cc2c(o1)C(=O)c1ccccc1C2=O [napabucasion]
Human BMDMs
  M2-like macrophage polarization induced by CM from DF86 and DF118: partially diminished

## C=CC(=O)Nc1cc(Nc2nccc(-c3cn(C)c4ccccc34)n2)c(OC)cc1N(C)CCN(C)C [osimertinib]
PE tumors [2]
  PE tumor growth: significantly slowed PE tumor growth; also recorded: tumor regression; also recorded: only modest therapeutic effects
  growth of large PE tumors: progressed through osimertinib treatment and presented growth rates comparable to control
  therapeutic effect under CD8^+ T cell depletion: significantly mitigated
PE tumor cells
  expression of CXCL10 and CCL5: significantly elevated
PC9GR4
  expression of CXCL10 and CCL5: significantly elevated
PE tumors [3]; large tumors
  T cells or IFNg^+/TNFa^+ T cells in large PE tumors: did not lead to increase
PE tumors [3]; single-agent treatment, FIG. 30B
  tumor immune microenvironment of large PE tumors: did not significantly affect
PE tumors [3]; small tumors, FIG. 27B
  CD8^+ and CD4^+ T cells in tumor: induced the recruitment of CD8^+ and CD4^+ T cells
  IFNg-positive CD8^+ and CD4^+ T cells: increase
[4]
  activation of EFGR/ERK signaling pathway (phosphorylation of EGFR and ERK): inhibited

From patent US20250009743A1, “METHODS OF TREATING CANCERS USING STING AGONISTS” (Dana-Farber Cancer Institute, Inc., priority 2021, published 2025)
